According to patent US20170045513A1, “METHODS OF DIAGNOSING CELIAC DISEASE USING IP-10” (ImmusanT, Inc., priority 2014, published 2017):
Non-standard residues stand in square brackets, D forms with d. pGlu = O=C1CC[C@@H](C(=O)O)N1

Assays:
Assay type in all cases: cell-based, human
[1] = test system: gluten-reactive T cells; assay: Overnight IFNγ ELISpot assay with fresh PBMC; conditions: for Percent of maximal response to individual gluten peptides, ELISp: after oral gluten challenge; for IFNγ ELISpot % max Mean: n = 5, blood after oral gluten challenge, individual peptides 5 μM (Peptide 2* of P14, Pepscan: 10 μg/mL (5.45 μM))
How it was run: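 Read-out is IFNγ spot-forming units per well, counted automatically after overnight culture of fresh PBMC (0.4 million/well) with single peptides (duplicate) or pools (triplicate). Donors: HLA-DQ2.5+ celiac patients on gluten-free diet, bled pre- and day 6 after 3-day oral gluten challenge.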

[2] = test system: gluten-reactive T cells; assay: 96-well plate whole blood cytokine release, IP-10 by MAGPIX multiplex bead assay; conditions: for Percent of maximal response to individual gluten peptides, IP-10: after oral gluten challenge; for IP-10 WB MAGPIX % max Mean: n = 10, blood after oral gluten challenge, individual peptides 5 μM (Peptide 2* of P14, Pepscan: 10 μg/mL (5.45 μM))
[3] = test system: gluten-reactive T cells; assay: Cytokine release assays taken together (IFNγ ELISpot, whole blood IFNγ and IP-10, in-tube IFNγ ELISA); conditions: for activity relative to Peptide 14 in the cytokine release assays: blood collected after oral gluten challenge; for cytokine release / immunogenicity of individual peptide: HLA-DQ2.5+ celiac disease subjects after gluten challenge
How it was run: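 Whole blood with peptides (P3 0.05-50 μg/mL; P13/P14 0.025-25 μM; […]), 24 h, 37 °C; plasma IFNγ/IP-10 by multiplex beads. Tube assay: 1 mL blood with P3 or CEF, 24 h, plasma IFNγ ELISA; elevated if >7.2 pg/mL above medium tube and SI >1.25. ELISpot overnight on fresh PBMC.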

Substance	Percent of maximal response to individual gluten peptides, ELISp ([1]; Subject 3, Max. 18 SFU)	Percent of maximal response to individual gluten peptides, ELISp ([1]; Subject 4, Max. 36 SFU)	Percent of maximal response to individual gluten peptides, ELISp ([1]; Subject 6, Max. 16 SFU)	Percent of maximal response to individual gluten peptides, ELISp ([1]; Subject 8, Max. 17 SFU)	Percent of maximal response to individual gluten peptides, ELISp ([1]; Subject 10, Max. 11 SFU)	IFNγ ELISpot % max Mean [1] [% max]	Percent of maximal response to individual gluten peptides, IP-10 ([2]; Subject 1, Max. 2331 pg/mL)	Percent of maximal response to individual gluten peptides, IP-10 ([2]; Subject 2, Max. 3646 pg/mL)	Percent of maximal response to individual gluten peptides, IP-10 ([2]; Subject 3, Max. 9492 pg/mL)	Percent of maximal response to individual gluten peptides, IP-10 ([2]; Subject 4, Max. 9463 pg/mL)	Percent of maximal response to individual gluten peptides, IP-10 ([2]; Subject 5, Max. 9336 pg/mL)	Percent of maximal response to individual gluten peptides, IP-10 ([2]; Subject 6, Max. 5863 pg/mL)	Percent of maximal response to individual gluten peptides, IP-10 ([2]; Subject 7, Max. 2330 pg/mL)	Percent of maximal response to individual gluten peptides, IP-10 ([2]; Subject 8, Max. 4019 pg/mL)	Percent of maximal response to individual gluten peptides, IP-10 ([2]; Subject 9, Max. 8349 pg/mL)	Percent of maximal response to individual gluten peptides, IP-10 ([2]; Subject 10, Max. 8922 pg/mL)	IP-10 WB MAGPIX % max Mean [2] [% max]	activity relative to Peptide 14 in the cytokine release assays [3]	cytokine release / immunogenicity of individual peptide [3]
(pE)QPFPQPEQPIPVQPEQS-amide ([pGlu]QPFPQPEQPIPVQPEQS-NH2; SMILES CC[C@H](C)[C@H](NC(=O)[C@@H]1CCCN1C(=O)[C@H](CCC(N)=O)NC(=O)[C@H](CCC(=O)O)NC(=O)[C@@H]1CCCN1C(=O)[C@H](CCC(N)=O)NC(=O)[C@@H]1CCCN1C(=O)[C@H](Cc1ccccc1)NC(=O)[C@@H]1CCCN1C(=O)[C@H](CCC(N)=O)NC(=O)[C@@H]1CCC(=O)N1)C(=O)N1CCC[C@H]1C(=O)N[C@H](C(=O)N[C@@H](CCC(N)=O)C(=O)N1CCC[C@H]1C(=O)N[C@@H](CCC(=O)O)C(=O)N[C@@H](CCC(N)=O)C(=O)N[C@@H](CO)C(N)=O)C(C)C) [Peptide 4]	17 % of max	44 % of max	19 % of max	12 % of max	27 % of max	24	18 % of max	19 % of max	≥ 100 % of max	≥ 100 % of max	51 % of max	2 % of max	3 % of max	7 % of max	48 % of max	30 % of max	38	from one-half to one-eighth as active as Peptide 14	
(pE)QPFPQPEQPTPIQPEQP-amide ([pGlu]QPFPQPEQPTPIQPEQP-NH2; SMILES CC[C@H](C)[C@H](NC(=O)[C@@H]1CCCN1C(=O)[C@@H](NC(=O)[C@@H]1CCCN1C(=O)[C@H](CCC(N)=O)NC(=O)[C@H](CCC(=O)O)NC(=O)[C@@H]1CCCN1C(=O)[C@H](CCC(N)=O)NC(=O)[C@@H]1CCCN1C(=O)[C@H](Cc1ccccc1)NC(=O)[C@@H]1CCCN1C(=O)[C@H](CCC(N)=O)NC(=O)[C@@H]1CCC(=O)N1)[C@@H](C)O)C(=O)N[C@@H](CCC(N)=O)C(=O)N1CCC[C@H]1C(=O)N[C@@H](CCC(=O)O)C(=O)N[C@@H](CCC(N)=O)C(=O)N1CCC[C@H]1C(N)=O) [Peptide 5]	17 % of max	19 % of max	0 % of max	18 % of max	55 % of max	22	0 % of max	13 % of max	≥ 100 % of max	46 % of max	13 % of max	1 % of max	2 % of max	4 % of max	10 % of max	60 % of max	25	from one-half to one-eighth as active as Peptide 14	
(pE)QPPFSEQEQPVLPQ-amide (N-terminal pyroglutamate; C-terminal amide) [Peptide 13]	6 % of max	6 % of max	0 % of max	0 % of max	0 % of max	2	0 % of max	16 % of max	70 % of max	0 % of max	6 % of max	5 % of max	0 % of max	0 % of max	0 % of max	0 % of max	10		weak or not distinguishable from medium alone
(pE)QPYPQPELPYPQPQ-amide ([pGlu]QPYPQPELPYPQPQ-NH2; SMILES CC(C)C[C@H](NC(=O)[C@H](CCC(=O)O)NC(=O)[C@@H]1CCCN1C(=O)[C@H](CCC(N)=O)NC(=O)[C@@H]1CCCN1C(=O)[C@H](Cc1ccc(O)cc1)NC(=O)[C@@H]1CCCN1C(=O)[C@H](CCC(N)=O)NC(=O)[C@@H]1CCC(=O)N1)C(=O)N1CCC[C@H]1C(=O)N[C@@H](Cc1ccc(O)cc1)C(=O)N1CCC[C@H]1C(=O)N[C@@H](CCC(N)=O)C(=O)N1CCC[C@H]1C(=O)N[C@@H](CCC(N)=O)C(N)=O) [Peptide 15]	11 % of max	17 % of max	31 % of max	6 % of max	0 % of max	13	4 % of max	30 % of max	≥ 100 % of max	67 % of max	33 % of max	0 % of max	6 % of max	5 % of max	69 % of max	17 % of max	33	no more than two-thirds as active as Peptide 14	
(pE)SGEGSFQPSQENPQ-amide ([pGlu]SGEGSFQPSQENPQ-NH2; SMILES NC(=O)CC[C@H](NC(=O)[C@@H]1CCCN1C(=O)[C@H](CC(N)=O)NC(=O)[C@H](CCC(=O)O)NC(=O)[C@H](CCC(N)=O)NC(=O)[C@H](CO)NC(=O)[C@@H]1CCCN1C(=O)[C@H](CCC(N)=O)NC(=O)[C@H](Cc1ccccc1)NC(=O)[C@H](CO)NC(=O)CNC(=O)[C@H](CCC(=O)O)NC(=O)CNC(=O)[C@H](CO)NC(=O)[C@@H]1CCC(=O)N1)C(N)=O) [Peptide 9]	0 % of max	0 % of max	0 % of max	6 % of max	0 % of max	1	0 % of max	0 % of max	0 % of max	0 % of max	0 % of max	0 % of max	0 % of max	0 % of max	0 % of max	0 % of max	0		weak or not distinguishable from medium alone
